Assay results published in patent publication US11951178B2, “Methods for treating subjects suffering from acute myeloid leukemia with FLT3 ligand-targeted miR-150 nanoparticles” (University of Cincinnati, priority 2016, dated 2024).

Legend:
[1] = test system: primary MLL-AF9 AML cells; experiment: MLL-AF9 AML secondary BMT recipient mouse model; assay type: in vivo; conditions: MLL-AF9 AML mice; nanoparticles 0.5 mg/kg i.v., JQ1 50 mg/kg i.p., every other day; PBS control 54 days
Description: The same MLL-AF9 AML mouse model was employed. […] All the P values were detected by log-rank test.
After the onset of secondary AML, the recipient mice were treated with PBS control, 0.5 mg/kg G7-NH2-miR-150, or G7-Flt3L-miR-150, i.v., every other day, until the PBS-treated control group all died of leukemia.
For the JQ1 and nanoparticle combination treatment experiment, after the onset of AML, the recipient mice were treated with PBS control, or 50 mg/kg JQ1, i.p., alone, or together with 0.5 mg/kg G7-NH2-miR-150, or G7-Flt3L-miR-150, i.v., every other day, until the PBS-treated control group all died of leukemia.
The in vivo therapeutic effects of the miR-150 nanoparticles were also investigated in a MLL-rearranged leukemic mouse model.

[2] = Blood cell counts of normal mice after nanoparticle/drug administration (effects on normal hematopoiesis)
Description: FIG. 12 provides an analysis of the potential influence of the nanoparticles on hematopoietic system in normal mice, C57BL/6 wild type mice were treated with 0.5 mg/kg PBS (Control/Ctrl), G7-NH2, G7-Flt3L, G7-NH2-miR-150 or G7-Flt3L-miR-150, i.v., every other day, for ten times. Mice were sacrificed 12 weeks after the last administration, subsequent Wright-Giemsa stained PB and BM, and H&E stained spleen and liver of the animals are shown.

[3] = normal C57BL/6 mice, 50 mg/kg JQ1 and/or 0.5 mg/kg nanoparticles, i.v., every day for 15 days, 4 weeks after the last administration

## Cc1sc2c(c1C)C(c1ccc(Cl)cc1)=N[C@@H](CC(=O)OC(C)(C)C)c1nnc(C)n1-2 [JQ1]
[1]
  median survival: 69.5 days
[2]; [3]
  BA: 0.01 ± 0.0 K/μl
  EO: 0.04 ± 0.04 K/μl
  LY: 5.57 ± 0.83 K/μl
  MO: 0.36 ± 0.32 K/μl
  NE: 1.2 ± 0.62 K/μl
  PLT: 688 ± 110.3 K/μl
  RBC: 8.12 ± 1.13 M/μl
  WBC: 7.18 ± 0.76 K/μl
[2]; normal mice in vivo
  noticeable (side) effects on normal hematopoiesis: did not cause any noticeable side effects
